# Laboratory results as given in patent US20260034091A1, “Compositions and Methods for Treating Metabolic Disorders” (The Regents of the University of California, priority 2022, published 2026).
# How the values were obtained:
# Format in all cases: in vivo, C57BL/6J male mice
# [1] = test system: 60% HFD diet-induced obesity in mice; test: Dose-dependent effect of TOFA in 60% HFD mouse model of diet-induced obesity (DIO); conditions: for body weight: oral
# Description: Six-week-old C57BL/6J male mice were fed with a 60 kcal % fat diet (Research Diets A12492i) for ten weeks before introduction of either vehicle (control) or TOFA, at varying doses, for an additional two weeks. TOFA was orally administered in doses of either 12.5, 25, 62.5, or 125 mg/kg, BID. Mice weights and food intake were monitored during the treatment time course. Prior to harvest, mice underwent whole body composition analysis (EchoMRI™ 2012). Upon study termination at 12 weeks, serum and liver samples were collected. Hepatic and serum triglyceride and cholesterol levels were measured by commercially available kits (abcam65336 and abcam65390, respectively). Additional liver samples were fixed in 4% paraformaldehyde and embedded in paraffin blocks for sectioning and subsequently stained with hematoxylin and eosin (H&E).
# PPAR signaling pathway = test: Transcriptional analysis of liver samples from 60% HFD mouse model of diet induced obesity
# Description: Six-week old C57BL/6J male mice were fed with a 60 kcal % fat diet (Research Diets A12492i) for seven weeks before introduction of either control or 125 mg/kg, BID, initial loading dose of TOFA daily via controlled oral gavage for one week (FIG. 2A). Mice were then treated with either vehicle (control) or 62.5 mg/kg, BID, maintenance dose of TOFA daily via oral gavage for three additional weeks. Upon study termination at 11 weeks, liver samples were collected. Total RNA was extracted from liver tissues (Qiagen RNeasy kit 74106), cDNA libraries were constructed (Roche KAPA HyperPrep kit), sequenced on the NovaSeq6000 platform (Novogene), and a downstream analysis pipeline was performed. Differentially expressed genes (DEGs) were defined by at least one log2-fold change (2-fold in linear scale) with an FDR cutoff of 0.05. For validation, total RNA was used to prepare CDNA (BioRAD iScript™ Reverse Transcription) according to manufacturer's protocol and qPCR was performed with fast SYBR Green Mix (ThermoFisher A25742) on the QuantStudio6 System (Applied Biosystems).
# [2] = test system: CDAHFD induced late stage NAFLD/NASH in mice; test: In-depth investigation of rescue effect of TOFA in CDAHFD induced late stage NAFLD/NASH; conditions: four weeks
# Description: Six-week-old C57BL/6J male mice were fed with a L-amino acid diet with 60 kcal % fat with 0.1% methionine and no added choline (CDAHFD; Research Diets A06071302i) for eight weeks. Ten subjects were randomly assigned to either a vehicle (control) treatment or a 125 mg/kg. BID, of TOFA treatment delivered by oral gavage for an additional four weeks. Mice weights were monitored during the entire treatment time course. Upon study termination at 12 weeks, serum and liver samples were collected. Serum liver damage biomarkers, ALT and AST, were measured by commercially available kits (abcam 105134 and abcam 105135, respectively). Hepatic and serum triglyceride levels were measured from a commercially available kit (abcam65336). Total RNA was extracted from liver tissues (Qiagen RNeasy kit 74106), and cDNA was prepared (BioRAD iScript™ Reverse Transcription) according to manufacturer's protocols. Quantitative PCR (qPCR) was performed with fast SYBR Green Mix (ThermoFisher A25742) on the QuantStudio6 System (Applied Biosciences).
# [3] = test system: CDAHFD-induced late stage NAFLD/NASH in mice; test: Benchmark study against Firsocostat and Fenofibrate in CDAHFD-induced late stage NAFLD/NASH; conditions: QD oral gavage four weeks
# Description: Six-week-old C57BL/6J male mice were fed with a L-amino acid diet with 60 kcal % fat with 0.1% methionine and no added choline (CDAHFD; Research Diets A06071302i) for eight weeks. Mice were randomly assigned to treatment groups of either a vehicle (control), 250 mg/kg of TOFA, 5 mg/kg of Firsocostat (Gilead Sciences), 50 mg/kg of Fenofibrate, or a combined dose of 5 mg/kg Firsocostat and 50 mg/kg Fenofibrate. All treatments were delivered QD by oral gavage for an additional four weeks. Mice weights and food intake were monitored during the treatment time course. Upon study termination at 12 weeks, liver and serum samples were collected. Serum liver damage biomarkers, ALT and AST, were measured by commercially available kits (abcam 105134 and abcam 105135, respectively). Hepatic and serum triglyceride levels were measured from a commercially available kit (abcam65336). Total RNA was extracted from liver tissues (Qiagen RNeasy kit 74106), and cDNA was prepared (BioRAD iScript™ Reverse Transcription) according to manufacturer's protocols. Quantitative PCR (qPCR) was performed with fast SYBR Green Mix (ThermoFisher A25742) on the QuantStudio6 System (Applied Biosciences). Protein expression levels of liver samples were measured by western blot using antibodies against VLDLR (AF2258, 1:2000), CPT1A (CST12252, 1:1000) and Histone H3 (CST9715, 1:1000). Membranes were developed using a HRP secondary antibody (1:5000) and visualized using an enhanced chemiluminescent HRP substrate (Thermo34577). Additional liver samples were fixed in 4% paraformaldehyde and embedded in paraffin blocks for sectioning and subsequently stained with hematoxylin and eosin (H&E).
# [4] = 12.5, 25, 62.5, or 125 mg/kg, BID, two weeks
# [5] = 125 mg/kg BID 1 week then 62.5 mg/kg BID 3 weeks, oral gavage
structure (smiles),measurement,setting,value
"CCCCCCCCCCCCCCOc1ccc(C(=O)O)o1 [TOFA, 5-(Tetradecyloxy)-2-furoic acid]",food intake,[1]; [4],remained constant
same,hepatic steatosis (H&E liver sections),[1]; [4],improvement in hepatic steatosis in a dose-dependent manner
same,serum cholesterol levels (HDL and VLDL/LDL fractions),[1]; [4],dose-dependent decrease
same,serum triglyceride levels,[1]; [4],dose-dependent decrease
same,overall lean mass (EchoMRI),[1]; all treatment groups,no changes
same,body weight,"[1]; highest dose 125 mg/kg, BID, two weeks",weight loss
same,fat mass as a percentage of body weight (EchoMRI),"[1]; highest dose treatment group (125 mg/kg, BID)",decrease in fat mass as a percentage of body weight
same,liver triglyceride levels,[1]; highest dosing treatment regimens,striking decreases
same,body weight,"[1]; lower doses (12.5, 25, 62.5 mg/kg, BID), two weeks",smaller or negligible changes in body weight
same,genes in the PPAR signaling pathway (BioPlanet 2019 database),PPAR signaling pathway; [5],upregulated various genes under PPAR transcriptional control
same,highest upregulated genes (RNAseq of liver),PPAR signaling pathway; [5],canonical PPAR-alpha target genes
same,transcriptional regulatory relationship analysis of upregulated genes (TRRUST Transcription Factors 2019),PPAR signaling pathway; [5],PPARA is one of the major acting factors in transcriptional regulation
same,"downstream PPAR target genes by RT-qPCR (fatty acid beta-oxidation, acyl-CoA processing, lipoprotein uptake and metabolism)",PPAR signaling pathway; liver mRNA relative to r18s mRNA,upregulated
same,hepatic hydrogen peroxide levels,[2]; 125 mg/kg BID oral gavage,decrease
same,liver triglyceride levels,[2]; 125 mg/kg BID oral gavage,significant decrease
same,serum ALT,[2]; 125 mg/kg BID oral gavage,trending decreases
same,serum AST,[2]; 125 mg/kg BID oral gavage,trending decreases
same,body weight,"[2]; 125 mg/kg BID oral gavage, vs vehicle",significant decrease
same,expression of genes involved in collagen biosynthesis by qPCR,"[2]; liver mRNA, 125 mg/kg BID",decreased
same,"expression of inflammation genes (Il1b, Tnfa) by RT-qPCR","[2]; liver mRNA, 125 mg/kg BID",decrease in expression
same,"genes with PPAR regulatory elements (beta-oxidation, lipogenesis) by RT-qPCR","[2]; liver mRNA, 125 mg/kg BID",upregulated
same,food intake,[3],not attributed to changes in food intake
same,liver damage,[3]; TOFA 250 mg/kg,"largely decreased liver damage relative to vehicle control treatment at comparable, or stronger, degrees than Firsocostat, Fenofibrate, or the combination of the two agents"
same,liver triglyceride levels,[3]; TOFA 250 mg/kg,strong decrease in liver triglyceride levels relative to Firsocostat treatments and vehicle control treatment
same,body weight,"[3]; TOFA 250 mg/kg, Firsocostat 5 mg/kg, Fenofibrate 50 mg/kg",significant weight loss
same,PPARA downstream targets Vldlr and Cpt1a (RT-qPCR),[3]; liver mRNA,unique increase
same,"genes involved in inflammation (Il1b, Il6) and collagen synthesis (Col1a1, Col3a) by RT-qPCR",[3]; liver mRNA,"specific, comparable response"
same,protein expression levels of VLDLR and CPT1A (western blot),[3]; liver samples,increased protein expression levels of VLDLR and CPT1A to higher degrees than the other treatment regimens
same,steatosis (H&E staining),[3]; liver sections,decreased levels of steatosis
